In series [1] the test system is Enterobacter cloacae. The experiment in a line: MIC / synergism, microtitre method (Example 42). It is filed as cell-based. As to conditions: compound alone; inoculum 0.5 × 10^-2.
The subject of the next series is Escherichia coli B 11. The experiment in a line: MIC / synergism, microtitre method (Example 42). It is filed as cell-based. As to conditions: compound alone; inoculum 0.5 × 10^-2.
Series [2] concerns strains of Klebsiella aerogenes A. The series is described as follows: growth inhibition, penicillins with and without clavulanic acid or ester. It counts as cell-based.
The subject of another series is Staphylococcus aureus. The series is described as follows: MIC / synergism, microtitre method (Example 42). It counts as cell-based.
For series [3], the system named is Staphylococcus aureus(Russell). The series is described as follows: MIC / synergism, microtitre method (Example 42). It counts as cell-based.
The target of series [4] is T1, Pseudomonas Dalgleish β-lactamase (Pseudomonas aeruginosa, UniProt P16897).
T1 construct: host or cells: Pseudomonas (aeruginosa) Dalgleish
T1 sequence (P16897 18-288): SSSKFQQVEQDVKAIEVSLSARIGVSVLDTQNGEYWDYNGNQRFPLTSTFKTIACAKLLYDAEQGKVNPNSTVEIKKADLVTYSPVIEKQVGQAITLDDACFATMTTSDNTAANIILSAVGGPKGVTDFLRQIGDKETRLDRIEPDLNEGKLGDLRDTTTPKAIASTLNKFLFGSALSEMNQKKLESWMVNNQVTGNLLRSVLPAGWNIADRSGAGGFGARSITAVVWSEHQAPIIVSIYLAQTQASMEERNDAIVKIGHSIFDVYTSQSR
The series is described as follows: β-lactamase I50, method of Belgian Pat. No. 827926. It counts as biochemical. As for the experimental part:
(§1) The I50 in μg/ml of this compound against several β-lactamaseswas determined using the method described in Belgian Pat. No. 827926 and the results are as follows: […]

Series [5] concerns the target T2, Escherischia coli JT4 β-lactamase (Escherichia coli, UniProt P62593).
T2 construct: host or cells: Escherichia coli JT4
The series is described as follows: β-lactamase I50, method of Belgian Pat. No. 827926. It counts as biochemical. The protocol:
as §1

Another series deals with bacteria. The series is described as follows: tests for antibacterial activity in broth (Example 32). It is filed as cell-based. The settings on record: possibly due to clavulanic acid liberated by slow hydrolysis.
The test system of the next series is Acinetobacter anitratus. The series is described as follows: MIC, microtitre method (Example 30). As to conditions: approximate MIC; inoculum final dilution 0.5 × 10^-4.
The test system of series [6] is Enterobacter cloacae. The series is described as follows: MIC, microtitre method (Example 30). As to conditions: approximate MIC; inoculum final dilution 0.5 × 10^-4.
Method: (§2) The cultures were incubated overnight and the points of bacterial growth recorded next morning by observing the turbidity of the culture.
The subject of the next series is Bacillus subtilis. The series is described as follows: MIC, microtitre method (Example 30). As to conditions: approximate MIC; inoculum final dilution 0.5 × 10^-4.
The subject of the next series is Proteus vulgaris W090. The experiment in a line: MIC, microtitre method (Example 30). The settings on record: approximate MIC; inoculum final dilution 0.5 × 10^-4.
The next series deals with Klebsiella aerogenes. The series is described as follows: MIC, microtitre method (Example 30). As to conditions: approximate MIC; inoculum final dilution 0.5 × 10^-4.
The test system of series [7] is Serratia marcescens. The experiment in a line: MIC, microtitre method (Example 30). As to conditions: approximate MIC; inoculum final dilution 0.5 × 10^-4.
Method: as §2
Series [8] can be described thus: blood and tissue levels in female mice. As to conditions: oral administration of 100 mg/kg. It counts as in vivo.
The test system of another series is Bacillus subtilis A. The series is described as follows: MIC, method of Example 30 with 1/100 dilution of overnight broth (Example 46). As to conditions: heavy inocula (1/100 of overnight broth); no unit in table (Example 30: μg/ml).
A further series concerns Staph.aureus Russell. The description is as above. As to conditions: heavy inocula (1/100 of overnight broth); no unit in table (Example 30: μg/ml).
A further series has as its system Klebsiella oxytocum. The series is described as follows: MIC, microtitre method (Example 30). The settings on record: approximate MIC; inoculum final dilution 0.5 × 10^-4.
The test system of series [9] is Enterobacter aerogenes T 624. The experiment in a line: MIC, microtitre method (Example 30). As to conditions: approximate MIC; inoculum final dilution 0.5 × 10^-4.
Method: as §2
The subject of series [10] is Serratia marcescens. The series is described as follows: MIC / synergism, microtitre method (Example 42). As to conditions: compound alone; inoculum 0.5 × 10^-2. It counts as cell-based.
In series [11] the test system is Escherichia coli NCTC 10418. The series is described as follows: MIC, microtitre method (Example 30). The settings on record: approximate MIC; inoculum final dilution 0.5 × 10^-4.
Method: as §2
A further series relates to Proteus mirabilis 899. It counts as cell-based.
The test system of another series is Providentia stuartii. The series is described as follows: MIC, microtitre method (Example 30). The settings on record: approximate MIC; inoculum final dilution 0.5 × 10^-4.
For the next series, the system named is Salmonella typhimurium. The series is described as follows: MIC, microtitre method (Example 30). The settings on record: approximate MIC; inoculum final dilution 0.5 × 10^-4.
For another series, the system named is Proteus mirabilis 0977. The series is described as follows: MIC, microtitre method (Example 30). As to conditions: approximate MIC; inoculum final dilution 0.5 × 10^-4.
The test system of series [12] is Streptococcus pyogenes CN 10. The series is described as follows: MIC, microtitre method (Example 30). As to conditions: approximate MIC; inoculum final dilution 0.5 × 10^-4.
Method: as §2
The subject of another series is Streptococcus faecalis. The experiment in a line: MIC, microtitre method (Example 30). The settings on record: approximate MIC; inoculum final dilution 0.5 × 10^-4.
A further series deals with Pseudomonas aeruginosa A. The series is described as follows: MIC, microtitre method (Example 30). The settings on record: approximate MIC; inoculum final dilution 0.5 × 10^-4.
A further series has as its system Staph.aureus Oxford. The series is described as follows: MIC, method of Example 30 with 1/100 dilution of overnight broth (Example 46). The settings on record: heavy inocula (1/100 of overnight broth); no unit in table (Example 30: μg/ml).
The next series concerns Shigella sonnei. The series is described as follows: MIC, microtitre method (Example 30). The settings on record: approximate MIC; inoculum final dilution 0.5 × 10^-4.
In series [13] the test system is β-lactamase producing strains of Proteus mirabilis and Staphylococcus aureus. The experiment in a line: synergism with cephaloridine. It counts as cell-based.
Series [14] concerns strains of Staphylococcus aureus. The experiment in a line: growth inhibition. It counts as cell-based.
For series [15], the system named is β-lactamase producing strains of Escherichia coli, Klebsiella aerognes and Staphylococcus aureus. The series is described as follows: synergism with ampicillin. It counts as cell-based.
Setting [16] is: in presence of 5μg/ml clavulanic acid sodium salt.

Counter-ions that a name gives are not always drawn.

Experimental findings from patent US4061649A, “Clavulanic acid sulphates” (Beecham Group Limited, priority 1975, dated 1977) are described below.

T2 sequence (P62593 24-286 limits assumed): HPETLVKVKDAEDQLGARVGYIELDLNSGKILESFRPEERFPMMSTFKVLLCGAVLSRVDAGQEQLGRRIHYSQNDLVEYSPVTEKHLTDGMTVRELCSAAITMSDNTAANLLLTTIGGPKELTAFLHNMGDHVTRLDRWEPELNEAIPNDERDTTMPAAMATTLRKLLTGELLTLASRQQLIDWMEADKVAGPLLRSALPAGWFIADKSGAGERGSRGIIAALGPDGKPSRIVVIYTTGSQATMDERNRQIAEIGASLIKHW
Method for Acinetobacter anitratus: as §2
Method for Bacillus subtilis A: as §2
Method for Klebsiella oxytocum: as §2
Method for Proteus mirabilis 0977: as §2
Method for Proteus vulgaris W090: as §2
Method for Providentia stuartii: as §2
Method for Pseudomonas aeruginosa A: as §2
Method for Salmonella typhimurium: as §2
Method for Shigella sonnei: as §2
Method for Staph.aureus Oxford: as §2
Method for Staph.aureus Russell: as §2
Method for Streptococcus faecalis: as §2

In the case of `CC1(C)S[C@@H]2[C@H](NC(=O)[C@H](N)c3ccccc3)C(=O)N2[C@H]1C(=O)O` [Ampicillin, ampicillin, reference compound], the entries for the “Minimum Inhibitory Concentrations” value in the series on Enterobacter cloacae [1] and with Escherichia coli B 11 were 250 µg/mL and more than 500 µg/mL, respectively.

As to `CC1(C)S[C@@H]2[C@H](NC(=O)Cc3ccccc3)C(=O)N2[C@H]1C(=O)O` [Benzylpenicillin, benzylpenicillin, reference compound], the “concentration by which growth is inhibited” value in [2] (when 5 μg/ml. of clavulanic acid is also present) is “less than 12.5 μg/ml”.

As to `O=C(Cc1cccs1)N[C@@H]1C(=O)N2C(C(=O)[O-])=C(C[n+]3ccccc3)CS[C@H]12` [Cephaloridine, cephaloridine], the “Minimum Inhibitory Concentrations” value was 3.7 µg/mL in the series with Staphylococcus aureus (setting [16]); more than 0.03 µg/mL in series [3] (setting [16]); “Same value” in series [3] (synergist (clavulanic acid sodium salt) added at 1 μg/ml. instead of 5 μg/ml., compared with the value at 5 μg/ml).

In the case of `O=C(OCc1ccccc1)[C@H]1/C(=C/COS(=O)(=O)O)O[C@@H]2CC(=O)N21` [Example 50, Benzyl Clavulanate -- O -- sulphonate trimethylamine salt], the figures for the concentration for half-maximal inhibition (IC50) in [4] and in series [5] were 11.4 µM and 9.21 µM, respectively.

As for `COC(=O)[C@H]1/C(=C/CO)O[C@@H]2CC(=O)N21` [clavulanic acid methyl ester], the “antibacterial activity in broth” value with bacteria was “broad spectrum activity but of a lower order than shown by clavulanic acid”.

For `O=C(O)[C@H]1/C(=C/CO)O[C@@H]2CC(=O)N21` [clavulanic acid sodium salt, 3-(β-hydroxyethylidine)-7-oxo-4-oxa-1-azabicyclo [3,2,0]heptane-2-carboxylic acid sodium salt], the “Minimum Inhibitory Concentration” value in the series on Acinetobacter anitratus is 125 µg/mL; in the series on Enterobacter cloacae [6] it was 62 µg/mL; in the series with Bacillus subtilis, 62 µg/mL; in the series with Proteus vulgaris W090, 31 µg/mL; in the series with Klebsiella aerogenes it was 31 to 62 µg/mL; in the series on Serratia marcescens [7], 125 µg/mL. Further, the “Minimum Inhibitory Concentration” value in the series on Klebsiella oxytocum was 62 µg/mL; in [9] it was 31 µg/mL; in series [11] it was 31 µg/mL; with Providentia stuartii it was 125 µg/mL; with Salmonella typhimurium it was 31 µg/mL; in the series with Proteus mirabilis 0977, 62 µg/mL. Also, the “Minimum Inhibitory Concentration” value in [12] is 125 µg/mL; with Streptococcus faecalis it was more than 500 µg/mL; in the series on Pseudomonas aeruginosa A, 500 µg/mL; in the series on Shigella sonnei it was 62 µg/mL. Moreover, the “Minimum Inhibitory Concentrations” value is 62 µg/mL in the series with Staphylococcus aureus (compound alone, inoculum 0.5 × 10^-2); 125 µg/mL in the series on Serratia marcescens [10]; less than 500 µg/mL in the series on Proteus mirabilis 899; 62 µg/mL in the series with Enterobacter cloacae [1]. In addition, the “levels of clavulanic acid” value in series [8] is “useful levels”. Besides, the results for the MIC in the series with Bacillus subtilis A, in the series on Staph.aureus Russell and against Staph.aureus Oxford were 62, 15 and 15, respectively.

Take `O=C(O)[C@H]1/C(=C/CO)O[C@@H]2CC(=O)N21` [clavulanic acid, Z-(2R,5R)-3-(β-hydroxyethylidene)-7-oxo-4-oxa-1-azabicyclo[3,2,0]heptane-2-carboxylic acid]: the “synergism of the antibacterial effect of cephaloridine” value in [13] was “able to synergyze the antibacterial effect of cephaloridine”. Besides, in series [14], the inhibition of growth entry is “able to inhibit the growth”. Moreover, the MIC in series [2] (Klebsiella aerogenes, compound alone, read-out: concentration by which growth is not inhibited) is more than 10 µg/mL. For the same compound, the “synergism of the antibacterial effect of ampicillin” value in series [15] was “able to synergyze the antibacterial effect of ampicillin”.
